Laboratory results reported in patent US7291580B2, “6-(1,1-difluoroalkyl)-4-aminopicolinates and their use as herbicides” (Dow AgroSciences LLC, priority 2004, dated 2007).

Assays:
[1] = tested on: Giant Foxtail (Setaria faberi); assay: Postemergence herbicidal activity; assay type: in vivo; conditions: visual score after 2 weeks, 0 = no injury, 100 = complete kill
Experimental: (§1) Seeds of the desired test plant species were planted in Grace-Sierra MetroMix® 306 planting mixture, which typically has a pH of 6.0 to 6.8 and an organic matter content of about 30 percent, in plastic pots with a surface area of 64 square centimeters. […] The plants were grown for 7-21 days in a greenhouse with an approximate 15 hr photoperiod which was maintained at about 23-29° C. during the day and 22-28° C. during the night. Nutrients and water were added on a regular basis and supplemental lighting was provided with overhead metal halide 1000-Watt lamps as necessary. The plants were employed for testing when they reached the first or second true leaf stage.
(§2) A weighed amount, determined by the highest rate to be tested, of each test compound was placed in a 20 mL glass vial and was dissolved in 4 mL of a 97:3 v/v (volume/volume) mixture of acetone and dimethyl sulfoxide (DMSO) to obtain concentrated stock solutions. […] The concentrated stock solutions obtained were diluted with an aqueous mixture containing acetone, water, isopropyl alcohol, DMSO, Atplus 411F crop oil concentrate, and Triton X-155 surfactant in a 48.5:39:10:1.5:1.0:0.02 v/v ratio to obtain spray solutions of known concentration. The solutions containing the highest concentration to be tested were prepared by diluting 2 mL aliquots of the stock solution with 13 mL of the mixture and lower concentrations were prepared by serial dilution of the stock solution. Approximately 1.5 mL aliquots of each solution of known concentration were sprayed evenly onto each of the test plant pots using a DeVilbiss atomizer driven by compressed air pressure of 2 to 4 psi (140 to 280 kiloPascals) to obtain thorough coverage of each plant. Control plants were sprayed in the same manner with the aqueous mixture. In this test an application rate of 1 ppm results in the application of approximately 1 g/Ha.
(§3) The treated plants and control plants were placed in a greenhouse as described above and watered by sub-irrigation to prevent wash-off of the test compounds. After 2 weeks the condition of the test plants as compared with that of the untreated plants was determined visually and scored on a scale of 0 to 100 percent where 0 corresponds to no injury and 100 corresponds to complete kill.

[2] = tested on: Lambsquarter (Chenopodium album); assay: Postemergence herbicidal activity; assay type: in vivo; conditions: visual score after 2 weeks, 0 = no injury, 100 = complete kill
Experimental: as §1, §2, §3

[3] = tested on: Cocklebur (Xanthium strumarium); assay: Postemergence herbicidal activity; assay type: in vivo; conditions: visual score after 2 weeks, 0 = no injury, 100 = complete kill
Experimental: as §1, §2, §3

[4] = tested on: Barnyardgrass (Echinochloa crus-galli); assay: Postemergence herbicidal activity; assay type: in vivo; conditions: visual score after 2 weeks, 0 = no injury, 100 = complete kill
Experimental: as §1, §2, §3

[5] = tested on: Pigweed (redroot) (Amaranthus retroflexus); conditions: rate 123 (unit not given); visual score after 2 weeks, 0 = no injury, 100 = complete kill
Experimental: as §1
(§4) A weighed amount, determined by the highest rate to be tested, of each test compound was placed in a 20 mL glass vial and was dissolved in 4 mL of a 97:3 v/v (volume/volume) mixture of acetone and dimethyl sulfoxide (DMSO) to obtain concentrated stock solutions. […]
as §3

[6] = tested on: Wheat (var.Merica) (Triticum aestivum); conditions: rate 123 (unit not given); crop selectivity to wheat; visual score after 2 weeks, 0 = no injury, 100 = complete kill
Experimental: as §1, §4, §3

[7] = tested on: Giant Foxtail (Setaria faberi); assay: Preemergence herbicidal activity; assay type: in vivo; conditions: rate 560 ppm; visual score after 3 weeks, 0 = no injury, 100 = complete kill or no germination
Experimental: (§5) The soil matrix was contained in plastic pots with a surface area of 113 square centimeters. […] The stock solutions obtained were diluted with a 99.9:0.1 mixture of water and Tween® […] surfactant to obtain application solutions of known concentration. […] A 2.5 mL aliquot of each solution of known concentration was sprayed evenly onto the soil surface (113 sq. cm) of each seeded pot using a Cornwall 5.0 mL glass syringe fitted with a TeeJet TN-3 hollow cone nozzle to obtain thorough coverage of the soil in each pot. […] The water was added by top-irrigation.

[8] = tested on: Lambsquarter (Chenopodium album); assay: Preemergence herbicidal activity; assay type: in vivo; conditions: rate 560 ppm; visual score after 3 weeks, 0 = no injury, 100 = complete kill or no germination
Experimental: as §5

[9] = tested on: Crabgrass (large) (Digitaria sanguinalis); assay: Preemergence herbicidal activity; assay type: in vivo; conditions: rate 560 ppm; visual score after 3 weeks, 0 = no injury, 100 = complete kill or no germination
Experimental: as §5

[10] = tested on: Ivyleaf Morningglory (Ipomoea hederacea); assay: Preemergence herbicidal activity; assay type: in vivo; conditions: rate 560 ppm; visual score after 3 weeks, 0 = no injury, 100 = complete kill or no germination
Experimental: as §5

Row | SMILES | Post-emergent (% injury) SETFA ([1]; rate 245 ppm) [%] | Post-emergent (% injury) CHEAL ([2]; rate 123 (unit not given)) [%] | Post-emergent (% injury) CHEAL ([2]; rate 245 ppm) [%] | Post-emergent (% injury) XANST ([3]; rate 245 ppm) [%] | Post-emergent (% injury) ECHCG ([4]; rate 245 ppm) [%] | Post-emergent (% injury) AMARE [5] [%] | Post-emergent (% injury) TRZAS [6] [%] | Pre-emergent (% injury) SETFA [7] [%] | Pre-emergent (% injury) CHEAL [8] [%] | Pre-emergent (% injury) DIGSA [9] [%] | Pre-emergent (% injury) IPOHE [10] [%] | Post-emergent (% injury) SETFA ([1]; rate 250 ppm) [%] | Post-emergent (% injury) CHEAL ([2]; rate 250 ppm) [%] | Post-emergent (% injury) XANST ([3]; rate 250 ppm) [%] | Post-emergent (% injury) ECHCG ([4]; rate 250 ppm) [%]
1 | COC(=O)c1nc(C(C)(F)F)cc(N)c1Cl [Compound 1, Methyl 4-amino-3-chloro-6-(1,1-difluroethyl)pyridine-2-carboxylate] | 65 | 100 | 100 | 100 | 75 | 100 | 0 | 100 | 100 | 100 | 100 | – | – | – | –
2 | CC(F)(F)c1cc(N)c(Cl)c(C(=O)O)n1 [Compound 2, 4-amino-3-chloro-6-(1,1-difluoroethyl)pyridine-2-carboxylic acid] | – | – | – | – | – | – | – | 95 | 100 | 98 | 100 | 85 | 100 | 100 | 80
